Data from US20100267561A1, “HERBICIDAL PYRIDAZINONE DERIVATIVES” (priority 2007, published 2010).

Experiments:
Test in all cases: Test B pre-/postemergence plant response
Type in all cases: in vivo
[1] = test system: large crabgrass (Digitaria sanguinalis); conditions: for Crabgrass, Large plant response rating: 8 g ai/ha
Summary of the method: (§1)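 Seeds were sown and sprayed preemergence, while plants at 2 to 18 cm (1- to 4-leaf stage) got postemergence sprays. Compounds were formulated in a non-phytotoxic solvent mixture with surfactant. After 13 to 15 days in a greenhouse, injury was rated visually against untreated controls, 0 (no effect) to 100 (complete control).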

soybean (Glycine max) = conditions: for Soybean plant response rating: 8 g ai/ha
Summary of the method: as §1

[2] = test system: Russian thistle (Salsola iberica); conditions: Preemergence
Summary of the method: as §1

[3] = test system: downy bromegrass (Bromus tectorum); conditions: for Bromegrass, Downy plant response rating: 8 g ai/ha
Summary of the method: as §1

[4] = test system: pigweed (Amaranthus retroflexus); conditions: for Pigweed plant response rating: 8 g ai/ha
Summary of the method: as §1

[5] = test system: common ragweed (Ambrosia elation); conditions: for Ragweed plant response rating: 8 g ai/ha
Summary of the method: as §1

[6] = test system: Italian ryegrass (Lolium multiflorum); conditions: for Ryegrass, Italian plant response rating: 8 g ai/ha
Summary of the method: as §1

[7] = test system: goosegrass (Eleusine indica); conditions: for Goosegrass plant response rating: 8 g ai/ha
Summary of the method: as §1

[8] = test system: woolly cupgrass (Eriochloa villosa); conditions: for Cupgrass, Woolly plant response rating: 8 g ai/ha
Summary of the method: as §1

[9] = test system: cocklebur (Xanthium strumarium); conditions: for Cocklebur plant response rating: 8 g ai/ha
Summary of the method: as §1

[10] = test system: catchweed bedstraw (Galium aparine); conditions: Preemergence
Summary of the method: as §1

[11] = test system: surinam grass (Brachiaria decumbens); conditions: for Surinam Grass plant response rating: 8 g ai/ha
Summary of the method: as §1

[12] = test system: common (oilseed) sunflower (Helianthus annuus); conditions: Preemergence
Summary of the method: as §1

kochia (Kochia scoparia) = conditions: for Kochia plant response rating: 8 g ai/ha
Summary of the method: as §1

[13] = Postemergence, 16 g ai/ha, scale 0 to 100
[14] = Postemergence, 31 g ai/ha, scale 0 to 100, 0 no effect, 100 complete control
[15] = Postemergence, 62 g ai/ha, scale 0 to 100, 0 no effect, 100 complete control
[16] = Preemergence, 16 g ai/ha, scale 0 to 100 (0 no effect, 100 complete control)
[17] = Preemergence, 31 g ai/ha, 0 to 100 scale, 0 no effect, 100 complete control
[18] = Preemergence, 62 g ai/ha, scale 0 to 100
[19] = Preemergence, 31 g ai/ha, scale 0 to 100 (0 no effect, 100 complete control)
[20] = 16 g ai/ha, scale 0 to 100 (0 no effect, 100 complete control)
[21] = 31 g ai/ha, scale 0 to 100 (0 no effect, 100 complete control)

With `CCc1cc(-c2ccc(Cl)cc2)nn1-c1c(OC(=O)C(C)(C)C)cnn(C)c1=O` [Compound 40] the “Crabgrass, Large plant response rating” value ([1]; postemergence, 0-100 scale) was 70, the “Plant response rating, Crabgrass, Large” value [1, 13] was 98 and the “Plant response rating, Crabgrass, Large” value [1, 14] was 98. The “Plant response rating, Crabgrass, Large” value [1, 15] was 100, the “Plant response rating, Crabgrass, Large” value [1, 16] was 100 and the “Plant response rating, Crabgrass, Large” value [1, 17] was 100. The “Plant response rating, Crabgrass, Large” value [1, 18] was 100, the “Crabgrass, Large plant response rating” value ([1]; Preemergence, scale 0 to 100) was 45 and the “Soybean plant response rating” value (soybean (Glycine max); postemergence, 0-100 scale) was 0. The “Plant response rating, Soybean” value (soybean (Glycine max); [13]) was 0, the “Plant response rating, Soybean” value (soybean (Glycine max); [15]) was 0 and the “Plant response rating, Soybean” value (soybean (Glycine max); [16]) was 0. The “Plant response rating, Soybean” value (soybean (Glycine max); [19]) was 0, the “Plant response rating, Soybean” value (soybean (Glycine max); [18]) was 0 and the “Soybean plant response rating” value (soybean (Glycine max); Preemergence, scale 0 to 100) was 0. For the same molecule, the “Plant response rating, Russian Thistle” value [2, 20] was 0, the “Plant response rating, Russian Thistle” value [2, 21] was 0 and the “Plant response rating, Russian Thistle” value ([2]; 62 g ai/ha, scale 0 to 100) was 0. For the same molecule, the “Russian Thistle plant response rating” value ([2]; 8 g ai/ha, scale 0 to 100) was 0, the “Bromegrass, Downy plant response rating” value ([3]; postemergence, 0-100 scale) was 50 and the “Plant response rating, Bromegrass, Downy” value [3, 13] was 60. The “Plant response rating, Bromegrass, Downy” value [3, 14] was 80, the “Plant response rating, Bromegrass, Downy” value [3, 15] was 100 and the “Plant response rating, Bromegrass, Downy” value [3, 16] was 60. For the same molecule, the “Plant response rating, Bromegrass, Downy” value [3, 17] was 80, the “Plant response rating, Bromegrass, Downy” value [3, 18] was 90 and the “Bromegrass, Downy plant response rating” value ([3]; Preemergence, scale 0 to 100) was 0. The “Pigweed plant response rating” value ([4]; postemergence, 0-100 scale) was 0, the “Plant response rating, Pigweed” value [4, 13] was 0 and the “Plant response rating, Pigweed” value [4, 14] was 0. The “Plant response rating, Pigweed” value [4, 15] was 0, the “Plant response rating, Pigweed” value [4, 16] was 0 and the “Plant response rating, Pigweed” value [4, 19] was 0. For the same molecule, the “Plant response rating, Pigweed” value [4, 18] was 0, the “Pigweed plant response rating” value ([4]; Preemergence, scale 0 to 100) was 0 and the “Ragweed plant response rating” value ([5]; postemergence, 0-100 scale) was 0. The “Plant response rating, Ragweed” value [5, 13] was 0, the “Plant response rating, Ragweed” value [5, 14] was 0 and the “Plant response rating, Ragweed” value [5, 15] was 0. For the same molecule, the “Plant response rating, Ragweed” value [5, 16] was 0, the “Plant response rating, Ragweed” value [5, 19] was 0 and the “Plant response rating, Ragweed” value [5, 18] was 0. For the same molecule, the “Ragweed plant response rating” value ([5]; Preemergence, scale 0 to 100) was 0, the “Ryegrass, Italian plant response rating” value ([6]; postemergence, 0-100 scale) was 80 and the “Plant response rating, Ryegrass, Italian” value [6, 13] was 100. For the same molecule, the “Plant response rating, Ryegrass, Italian” value [6, 14] was 100, the “Plant response rating, Ryegrass, Italian” value [6, 15] was 100 and the “Plant response rating, Ryegrass, Italian” value [6, 16] was 95. The “Plant response rating, Ryegrass, Italian” value [6, 19] was 95, the “Plant response rating, Ryegrass, Italian” value [6, 18] was 100 and the “Ryegrass, Italian plant response rating” value ([6]; Preemergence, scale 0 to 100) was 80. For the same molecule, the “Goosegrass plant response rating” value ([7]; postemergence, 0-100 scale) was 60, the “Plant response rating, Goosegrass” value [7, 13] was 75 and the “Plant response rating, Goosegrass” value [7, 14] was 80. The “Plant response rating, Goosegrass” value [7, 15] was 100, the “Plant response rating, Goosegrass” value [7, 16] was 100 and the “Plant response rating, Goosegrass” value [7, 17] was 100. For the same molecule, the “Plant response rating, Goosegrass” value [7, 18] was 100, the “Goosegrass plant response rating” value ([7]; Preemergence, scale 0 to 100) was 98 and the “Cupgrass, Woolly plant response rating” value ([8]; postemergence, 0-100 scale) was 98. For the same molecule, the “Plant response rating, Cupgrass, Woolly” value [8, 13] was 98, the “Plant response rating, Cupgrass, Woolly” value [8, 14] was 100 and the “Plant response rating, Cupgrass, Woolly” value [8, 15] was 100. For the same molecule, the “Plant response rating, Cupgrass, Woolly” value [8, 16] was 100, the “Plant response rating, Cupgrass, Woolly” value [8, 17] was 100 and the “Plant response rating, Cupgrass, Woolly” value [8, 18] was 100. The “Cupgrass, Woolly plant response rating” value ([8]; Preemergence, scale 0 to 100) was 15, the “Cocklebur plant response rating” value ([9]; postemergence, 0-100 scale) was 0 and the “Plant response rating, Cocklebur” value [9, 13] was 0. For the same molecule, the “Plant response rating, Cocklebur” value [9, 14] was 0, the “Plant response rating, Cocklebur” value [9, 15] was 0 and the “Plant response rating, Cocklebur” value [9, 16] was 0. For the same molecule, the “Plant response rating, Cocklebur” value [9, 17] was 0, the “Plant response rating, Cocklebur” value [9, 18] was 0 and the “Cocklebur plant response rating” value ([9]; Preemergence, scale 0 to 100) was 0. The “Plant response rating, Galium” value [10, 20] was 0, the “Plant response rating, Galium” value ([10]; 31 g ai/ha, 0 to 100 scale, 0 no effect, 100 complete control) was 0 and the “Plant response rating, Galium” value ([10]; 62 g ai/ha, scale 0 to 100) was 0. For the same molecule, the “Galium plant response rating” value ([10]; 8 g ai/ha, scale 0 to 100) was 0, the “Surinam Grass plant response rating” value ([11]; postemergence, 0-100 scale) was 98 and the “Plant response rating, Surinam Grass” value [11, 13] was 100. The “Plant response rating, Surinam Grass” value [11, 15] was 100, the “Plant response rating, Surinam Grass” value [11, 16] was 100 and the “Plant response rating, Surinam Grass” value [11, 19] was 100. The “Plant response rating, Surinam Grass” value ([11]; Preemergence, 62 g ai/ha, 0 to 100 scale, 0 no effect, 100 complete control) was 100, the “Surinam Grass plant response rating” value ([11]; Preemergence, scale 0 to 100) was 80 and the “Plant response rating, Sunflower” value [12, 20] was 0. For the same molecule, the “Plant response rating, Sunflower” value [12, 21] was 0, the “Plant response rating, Sunflower” value ([12]; 62 g ai/ha, scale 0 to 100) was 0 and the “Sunflower plant response rating” value ([12]; 8 g ai/ha, scale 0 to 100) was 0. For the same molecule, the “Kochia plant response rating” value (kochia (Kochia scoparia); postemergence, 0-100 scale) was 0, the “Plant response rating, Kochia” value (kochia (Kochia scoparia); [13]) was 0 and the “Plant response rating, Kochia” value (kochia (Kochia scoparia); [14]) was 0. The “Plant response rating, Kochia” value (kochia (Kochia scoparia); [15]) was 0, the “Plant response rating, Kochia” value (kochia (Kochia scoparia); [16]) was 0 and the “Plant response rating, Kochia” value (kochia (Kochia scoparia); [17]) was 0. For the same molecule, the “Plant response rating, Kochia” value (kochia (Kochia scoparia); [18]) was 0 and the “Kochia plant response rating” value (kochia (Kochia scoparia); Preemergence, scale 0 to 100) was 0.
